# In patent publication US12595269B2, “Morpholine-like monoamine releasers” (Solvonis Therapeutics Ireland Holdings Limited, priority 2022, dated 2026):
# Key:
# Type in all cases: in vitro ADME
# [1] = biological target: T1, CYP2B6 (Homo sapiens, UniProt P20813); assay: CYP450 inhibition, Vivid CYP2B6 Baculosomes, BOMCC substrate
# T1 construct: purchased Life Technologies P3028; host or cells: Baculosomes
# T1 sequence (P20813 1-491): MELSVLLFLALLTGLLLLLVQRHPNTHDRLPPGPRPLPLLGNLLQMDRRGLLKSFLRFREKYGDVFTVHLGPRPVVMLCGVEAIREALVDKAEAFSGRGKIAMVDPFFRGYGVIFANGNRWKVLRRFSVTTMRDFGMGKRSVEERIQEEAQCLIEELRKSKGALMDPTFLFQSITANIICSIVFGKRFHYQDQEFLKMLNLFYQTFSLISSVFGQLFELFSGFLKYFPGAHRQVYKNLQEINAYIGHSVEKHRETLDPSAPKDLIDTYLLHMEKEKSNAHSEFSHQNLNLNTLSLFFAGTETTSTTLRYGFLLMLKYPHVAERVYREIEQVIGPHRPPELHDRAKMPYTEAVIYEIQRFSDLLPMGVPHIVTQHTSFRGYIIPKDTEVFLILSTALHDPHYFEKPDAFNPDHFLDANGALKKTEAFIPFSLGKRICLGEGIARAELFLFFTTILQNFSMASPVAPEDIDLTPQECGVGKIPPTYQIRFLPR
# Experimental: (§1) Methods and Procedure: The study was performed in agreement with previously described procedures to assure data integrity and adherence to GLP standards. Briefly, recombinant human CYP450 isoenzymes were used to metabolize pro-fluorescent probe substrates to fluorescent products. IC50 values determined from the effect of test compounds on the metabolism of these probe substrates were then used to determine inhibitory potency against CYP450 isoforms.
# (§2) The test system was based on a three-step procedure with a “mix and read” format, where PGP-432,TI reaction and reading were performed at 37° C. […] Fluorescence was measured in kinetic mode (1 read/minutes for 10 minutes), and the fluorescence rate was calculated. […]
# Next, 10 μL/well from the compound plate was added and incubated for 10 minutes at 37° C. on a plate shaker, while a mixture of Vivid Substrate and Vivid NADP+ in Vivid CYP450 Reaction Buffer was prepared. The reaction was initiated by adding 10 μL/well of the Vivid Substrate and NADP+ mixture, before transferring the plate into the fluorescent plate reader (immediately, within 2 minutes), and fluorescence was monitored every minute for 10 minutes according to the specific protocol. Regarding data analysis, the inhibition effect is expressed as a percentage. […]
# [2] = biological target: T2, CYP2C19 (Homo sapiens, UniProt P33261); assay: CYP450 inhibition, fluorescent probe, recombinant microsomes: CYP2C19
# T2 construct: host or cells: recombinant microsomes
# T2 sequence (P33261 whole entry): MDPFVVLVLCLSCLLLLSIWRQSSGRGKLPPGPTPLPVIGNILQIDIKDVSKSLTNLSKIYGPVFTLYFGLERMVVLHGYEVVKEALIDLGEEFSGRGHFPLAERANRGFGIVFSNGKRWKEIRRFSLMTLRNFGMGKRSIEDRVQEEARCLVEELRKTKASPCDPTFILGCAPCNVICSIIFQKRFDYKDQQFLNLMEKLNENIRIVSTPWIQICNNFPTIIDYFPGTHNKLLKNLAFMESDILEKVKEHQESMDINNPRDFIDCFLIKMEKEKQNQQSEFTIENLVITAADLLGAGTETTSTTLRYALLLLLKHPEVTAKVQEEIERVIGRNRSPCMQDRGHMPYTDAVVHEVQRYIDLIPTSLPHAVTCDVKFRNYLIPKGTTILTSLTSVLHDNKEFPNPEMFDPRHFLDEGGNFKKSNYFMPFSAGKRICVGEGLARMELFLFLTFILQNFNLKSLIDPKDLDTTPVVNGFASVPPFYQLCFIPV
# Experimental: as §1, §2
# (§3) Microsomes were added to the buffer prior to the substrate addition. […] For fluorescence measurement, 10 μL/well of the test compounds were transferred from the compound plate to the assay plate using Biomek FX and the appropriate protocol. […]
# (§4) 10 μL/well of the cofactor was then added to the assay plate using the Multidrop before placing the assay plate in the plate reader EnVision to measure fluorescence. […]
# (§5) Next, 10 μL/well from the compound plate was added and incubated for 10 minutes at 37° C. on a plate shaker, while a mixture of Vivid Substrate and Vivid NADP+ in Vivid CYP450 Reaction Buffer was prepared. […] Regarding data analysis, the inhibition effect is expressed as a percentage. […]
# [3] = biological target: T3, CYP2C9 (Homo sapiens, UniProt P11712); assay: CYP450 inhibition, fluorescent probe, recombinant microsomes: CYP2C9
# T3 construct: host or cells: recombinant microsomes
# T3 sequence (P11712 whole entry): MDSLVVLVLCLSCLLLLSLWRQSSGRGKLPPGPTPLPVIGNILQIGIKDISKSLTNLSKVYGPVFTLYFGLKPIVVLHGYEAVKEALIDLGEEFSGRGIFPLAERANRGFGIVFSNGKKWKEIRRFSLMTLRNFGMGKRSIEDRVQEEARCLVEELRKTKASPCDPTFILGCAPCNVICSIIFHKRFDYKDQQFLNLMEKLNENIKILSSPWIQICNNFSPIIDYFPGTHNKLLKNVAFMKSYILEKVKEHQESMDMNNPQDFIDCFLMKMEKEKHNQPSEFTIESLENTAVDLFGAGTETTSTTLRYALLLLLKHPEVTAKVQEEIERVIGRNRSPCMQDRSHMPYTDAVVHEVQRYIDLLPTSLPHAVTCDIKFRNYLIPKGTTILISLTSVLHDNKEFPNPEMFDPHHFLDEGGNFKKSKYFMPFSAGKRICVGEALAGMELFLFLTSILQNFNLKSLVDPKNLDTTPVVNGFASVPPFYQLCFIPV
# Experimental: as §1, §2, §3, §4, §5
SMILES,IC50 ([1]; recombinant human CYP2B6) [µM],IC50 ([2]; recombinant human CYP2C19) [µM],IC50 ([3]; recombinant human CYP2C9) [µM],"IC50 at 10 min ([1]; human, recombinant CYP2B6 Baculosomes, pH 8, probe Vivid BOMCC) [µM]","IC50 at 10 min ([2]; human, recombinant microsomes expressing CYP2C19) [µM]","IC50 at 10 min ([3]; human, recombinant microsomes expressing CYP2C9) [µM]"
"Clc1ccc(C23CNC(CO2)C3)cc1Cl (stereo not drawn) [522A, 1-(3,4-dichlorophenyl)-2-oxa-5-azabicyclo[2.2.1]heptane]",41,> 50,> 50,–,–,–
"CNC(C)Cc1ccc2c(c1)OCO2 (stereo not drawn) [MDMA, reference compound]",–,–,–,50,50,50
